# In patent US12685735B2 (Foghorn Therapeutics Inc., priority 2020, dated 2026):
# How the values were obtained:
# BRM = BRM (Homo sapiens, UniProt P51531); assay: ATPase catalytic activity assay of BRM (ADP-Glo); assay type: biochemical; details: for IC50: read-out: BRM IC50 (μM)*
# Procedure, shortened: (§1)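 Two room-temperature incubations follow the reaction: 40 min to eliminate unused ATP, then 60 min to turn ADP into ATP driving luciferase light output. Activity is read as luminescence proportional to ADP formed.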
# BRG-1 = BRG-1 (Homo sapiens, UniProt P51532); assay: ATPase catalytic activity assay of BRG-1 (ADP-Glo); assay type: biochemical; details: ATPase catalytic activity, ADP-Glo; for IC50: read-out: BRG1 IC50 (μM)*; for Emax: read-out: BRG1 Max % Inhibition
# Procedure, shortened: as §1
# Chain of BRG-1 (P51532 whole entry): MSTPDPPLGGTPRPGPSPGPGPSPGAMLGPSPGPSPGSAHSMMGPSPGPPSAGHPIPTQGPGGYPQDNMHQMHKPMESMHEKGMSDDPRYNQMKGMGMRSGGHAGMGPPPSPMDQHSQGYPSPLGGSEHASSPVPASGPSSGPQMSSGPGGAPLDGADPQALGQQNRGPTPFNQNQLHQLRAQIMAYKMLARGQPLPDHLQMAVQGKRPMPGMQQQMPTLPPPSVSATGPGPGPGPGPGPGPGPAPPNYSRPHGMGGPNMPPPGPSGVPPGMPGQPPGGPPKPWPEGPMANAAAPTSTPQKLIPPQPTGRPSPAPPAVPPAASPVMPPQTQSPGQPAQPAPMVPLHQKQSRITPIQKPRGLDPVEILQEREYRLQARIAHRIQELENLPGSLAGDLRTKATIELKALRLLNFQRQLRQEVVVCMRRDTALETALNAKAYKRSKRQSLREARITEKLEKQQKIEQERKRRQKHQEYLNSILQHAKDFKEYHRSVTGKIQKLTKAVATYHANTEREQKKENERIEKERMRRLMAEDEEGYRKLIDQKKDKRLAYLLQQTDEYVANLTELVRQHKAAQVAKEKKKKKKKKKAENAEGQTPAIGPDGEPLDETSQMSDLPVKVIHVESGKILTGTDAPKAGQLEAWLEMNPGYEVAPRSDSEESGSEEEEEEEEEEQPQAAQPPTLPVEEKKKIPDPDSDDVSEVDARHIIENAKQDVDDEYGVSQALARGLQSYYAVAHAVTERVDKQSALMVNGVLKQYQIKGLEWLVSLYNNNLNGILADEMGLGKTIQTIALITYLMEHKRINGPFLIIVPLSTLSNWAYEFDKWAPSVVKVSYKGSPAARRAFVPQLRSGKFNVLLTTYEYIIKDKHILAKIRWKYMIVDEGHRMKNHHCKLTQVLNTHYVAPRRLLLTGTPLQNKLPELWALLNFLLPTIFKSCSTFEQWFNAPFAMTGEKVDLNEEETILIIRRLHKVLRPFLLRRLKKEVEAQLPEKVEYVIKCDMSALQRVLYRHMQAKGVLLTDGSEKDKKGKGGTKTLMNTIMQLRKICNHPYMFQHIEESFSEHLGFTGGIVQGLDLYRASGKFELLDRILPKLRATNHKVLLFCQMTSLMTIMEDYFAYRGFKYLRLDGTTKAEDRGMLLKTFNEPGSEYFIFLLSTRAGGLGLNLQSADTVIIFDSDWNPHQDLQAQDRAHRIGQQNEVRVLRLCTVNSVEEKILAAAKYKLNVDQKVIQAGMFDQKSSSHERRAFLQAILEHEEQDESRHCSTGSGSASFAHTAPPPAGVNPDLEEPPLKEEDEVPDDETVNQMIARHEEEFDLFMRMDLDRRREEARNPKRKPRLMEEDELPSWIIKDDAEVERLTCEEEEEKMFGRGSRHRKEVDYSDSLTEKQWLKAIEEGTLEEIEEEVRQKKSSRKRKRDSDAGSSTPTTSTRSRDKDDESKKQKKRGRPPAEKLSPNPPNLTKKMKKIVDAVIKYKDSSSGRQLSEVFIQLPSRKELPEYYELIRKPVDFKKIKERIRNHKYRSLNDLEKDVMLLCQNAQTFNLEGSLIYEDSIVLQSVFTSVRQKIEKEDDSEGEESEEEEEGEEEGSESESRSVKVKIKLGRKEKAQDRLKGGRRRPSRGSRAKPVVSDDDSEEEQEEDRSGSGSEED
# Chain of BRM (P51531 whole entry): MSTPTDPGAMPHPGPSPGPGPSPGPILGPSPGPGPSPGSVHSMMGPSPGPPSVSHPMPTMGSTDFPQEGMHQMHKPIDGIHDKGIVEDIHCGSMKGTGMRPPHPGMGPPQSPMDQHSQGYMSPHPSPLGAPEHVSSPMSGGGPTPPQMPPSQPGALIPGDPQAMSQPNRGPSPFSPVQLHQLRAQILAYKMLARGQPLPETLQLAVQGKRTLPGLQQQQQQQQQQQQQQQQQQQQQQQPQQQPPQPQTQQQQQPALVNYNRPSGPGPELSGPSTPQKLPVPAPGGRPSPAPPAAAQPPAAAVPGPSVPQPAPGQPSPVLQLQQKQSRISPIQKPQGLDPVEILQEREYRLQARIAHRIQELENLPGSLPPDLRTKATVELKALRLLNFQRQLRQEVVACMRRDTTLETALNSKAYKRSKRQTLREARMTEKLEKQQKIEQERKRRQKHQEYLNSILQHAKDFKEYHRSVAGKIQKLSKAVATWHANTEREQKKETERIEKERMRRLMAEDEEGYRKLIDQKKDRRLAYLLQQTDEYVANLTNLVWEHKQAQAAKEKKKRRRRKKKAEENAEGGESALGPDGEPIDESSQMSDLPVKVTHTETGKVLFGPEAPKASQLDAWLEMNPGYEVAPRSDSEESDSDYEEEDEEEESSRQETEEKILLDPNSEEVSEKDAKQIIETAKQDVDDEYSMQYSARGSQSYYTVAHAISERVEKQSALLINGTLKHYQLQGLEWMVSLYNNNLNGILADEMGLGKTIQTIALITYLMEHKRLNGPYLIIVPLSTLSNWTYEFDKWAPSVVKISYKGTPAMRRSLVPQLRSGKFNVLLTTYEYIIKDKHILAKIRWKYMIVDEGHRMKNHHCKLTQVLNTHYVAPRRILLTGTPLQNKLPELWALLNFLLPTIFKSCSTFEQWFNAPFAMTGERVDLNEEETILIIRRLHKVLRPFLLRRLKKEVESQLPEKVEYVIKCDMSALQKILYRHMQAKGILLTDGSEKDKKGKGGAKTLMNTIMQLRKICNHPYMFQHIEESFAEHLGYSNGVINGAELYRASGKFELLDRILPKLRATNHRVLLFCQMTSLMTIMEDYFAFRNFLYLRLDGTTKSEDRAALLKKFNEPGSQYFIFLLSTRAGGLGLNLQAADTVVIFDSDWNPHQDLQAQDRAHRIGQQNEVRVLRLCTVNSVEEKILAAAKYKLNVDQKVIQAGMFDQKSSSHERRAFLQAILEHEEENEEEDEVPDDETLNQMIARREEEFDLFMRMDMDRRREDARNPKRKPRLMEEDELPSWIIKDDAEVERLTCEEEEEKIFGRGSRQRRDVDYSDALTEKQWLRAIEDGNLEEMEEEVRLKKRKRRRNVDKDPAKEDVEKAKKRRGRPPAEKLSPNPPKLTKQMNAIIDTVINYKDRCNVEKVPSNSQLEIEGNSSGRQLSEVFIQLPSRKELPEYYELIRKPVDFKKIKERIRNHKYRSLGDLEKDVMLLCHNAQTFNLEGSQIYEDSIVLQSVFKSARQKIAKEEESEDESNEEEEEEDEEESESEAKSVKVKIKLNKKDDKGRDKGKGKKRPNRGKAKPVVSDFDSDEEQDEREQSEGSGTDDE
BRM Max % Inhibition (BRM) [%],IC50 (BRM) [µM],IC50 (BRG-1) [µM],Emax (BRG-1) [%],Compound
>90,0.1 to 1,1 to 5,> 60,"Cn1ncc(-c2cccc(-c3csc(NC(=O)CNC(=O)c4ccc5c(c4)C(C)(CO)CC5)n3)n2)n1 (stereo not drawn) [Compound 155, 3-(hydroxymethyl)-3-methyl-N-(2-((4-(6-(2-methyl-2H-1,2,3-triazol-4-yl)pyridin-2-yl)thiazol-2-yl)amino)-2-oxoethyl)-2,3-dihydro-1H-indene-5-carboxamide]"
>80,0.1 to 1,> 5,> 30,"C[C@@H]1CN(c2cccc(-c3csc(NC(=O)CNC(=O)c4cccc([C@H]5COC[C@@H]5O)c4)n3)c2)C[C@H](C)O1 [Compound 156, N-(2-((4-(3-((cis)-2,6-dimethylmorpholino)phenyl)thiazol-2-yl)amino)-2-oxoethyl)-3-((3S,4R)-4-hydroxytetrahydrofuran-3-yl)benzamide]"
>70,0.1 to 1,> 5,> 30,"C[C@@H]1CN(c2cccc(-c3csc(NC(=O)CNC(=O)c4cccc([C@@H]5COC[C@H]5O)c4)n3)c2)C[C@H](C)O1 [Compound 157, N-(2-((4-(3-((cis)-2,6-dimethylmorpholino)phenyl)thiazol-2-yl)amino)-2-oxoethyl)-3-((3R,4S)-4-hydroxytetrahydrofuran-3-yl)benzamide]"
>95,< 0.1,< 0.1,> 95,"C[C@@H]1CN(c2cccc(-c3csc(NC(=O)CNC(=O)c4ccc5c(c4)[C@](C#N)(CO)CC5)n3)n2)C[C@H](C)O1 [Compound 159, (R)-3-cyano-N-(2-((4-(6-((cis)-2,6-dimethylmorpholino)pyridin-2-yl)thiazol-2-yl)amino)-2-oxoethyl)-3-(hydroxymethyl)-2,3-dihydro-1H-indene-5-carboxamide]"
>80,0.1 to 1,> 5,< 30,"C[C@@H]1CN(c2cccc(-c3csc(NC(=O)CNC(=O)c4cccc([C@@H]5COC[C@H]5O)c4)n3)n2)C[C@H](C)O1 [Compound 160, N-(2-((4-(6-((cis)-2,6-dimethylmorpholino)pyridin-2-yl)thiazol-2-yl)amino)-2-oxoethyl)-3-((3R,4S)-4-hydroxytetrahydrofuran-3-yl)benzamide]"
>95,< 0.1,0.1 to 1,> 80,"C[C@@H]1CN(c2cccc(-c3csc(NC(=O)CNC(=O)c4ccc5c(c4)[C@@H](CO)CC5)n3)n2)C[C@H](C)O1 [Compound 161, (3S)-N-[2-[[4-[6-[(cis)-2,6-dimethylmorpholin-4-yl]-2-pyridyl]thiazol-2-yl]amino]-2-oxo-ethyl]-3-(hydroxymethyl)indane-5-carboxamide]"
>70,0.1 to 1,> 5,> 40,"C[C@@H]1CN(c2cccc(-c3csc(NC(=O)CNC(=O)c4ccc5c(c4)[C@H](CO)CC5)n3)n2)C[C@H](C)O1 [Compound 162, (3R)-N-[2-[[4-[6-[(cis)-2,6-dimethylmorpholin-4-yl]-2-pyridyl]thiazol-2-yl]amino]-2-oxo-ethyl]-3-(hydroxymethyl)indane-5-carboxamide]"
>90,< 0.1,1 to 5,> 40,"Cc1cncc(-c2cccc(-c3csc(NC(=O)CNC(=O)c4ccc5c(c4)[C@](C)(CO)CC5)n3)n2)n1 [Compound 163, (R)-3-(hydroxymethyl)-3-methyl-N-(2-((4-(6-(6-methylpyrazin-2-yl)pyridin-2-yl)thiazol-2-yl)amino)-2-oxoethyl)-2,3-dihydro-1H-indene-5-carboxamide]"
>60,0.1 to 1,> 5,< 30,"Cc1cncc(-c2cccc(-c3csc(NC(=O)CNC(=O)c4ccc5c(c4)[C@@](C)(CO)CC5)n3)n2)n1 [Compound 164, (S)-3-(hydroxymethyl)-3-methyl-N-(2-((4-(6-(6-methylpyrazin-2-yl)pyridin-2-yl)thiazol-2-yl)amino)-2-oxoethyl)-2,3-dihydro-1H-indene-5-carboxamide]"
>90,0.1 to 1,> 5,< 40,"C[C@@H]1CN(c2cccc(-c3csc(NC(=O)CNC(=O)c4ccc5c(c4)[C@](C)(CO)CCO5)n3)c2)C[C@H](C)O1 [Compound 165, (R)-N-(2-((4-(3-((cis)-2,6-dimethylmorpholino)phenyl)thiazol-2-yl)amino)-2-oxoethyl)-4-(hydroxymethyl)-4-methylchroman-6-carboxamide]"
>95,0.1 to 1,> 5,> 50,"C[C@@H]1CN(c2cccc(-c3csc(NC(=O)CNC(=O)c4ccc5c(c4)[C@@](C)(CO)CCO5)n3)c2)C[C@H](C)O1 [Compound 166, (S)-N-(2-((4-(3-((cis)-2,6-dimethylmorpholino)phenyl)thiazol-2-yl)amino)-2-oxoethyl)-4-(hydroxymethyl)-4-methylchroman-6-carboxamide]"
>95,0.1 to 1,> 5,> 50,"C[C@@]1(CO)CCc2ccc(C(=O)NCC(=O)Nc3nc(-c4cccc(-c5cnccn5)n4)cs3)cc21 [Compound 167, (R)-3-(hydroxymethyl)-3-methyl-N-(2-oxo-2-((4-(6-(pyrazin-2-yl)pyridin-2-yl)thiazol-2-yl)amino)ethyl)-2,3-dihydro-1H-indene-5-carboxamide]"
>90,0.1 to 1,> 5,> 50,"C[C@@H]1CN(c2cccc(-c3csc(NC(=O)CNC(=O)c4cccc(C5(CO)COC5)c4)n3)c2)C[C@H](C)O1 [Compound 168, N-(2-((4-(3-((cis)-2,6-dimethylmorpholino)phenyl)thiazol-2-yl)amino)-2-oxoethyl)-3-(3-(hydroxymethyl)oxetan-3-yl)benzamide]"
>80,0.1 to 1,> 5,> 50,"C[C@]1(CO)CCc2ccc(C(=O)NCC(=O)Nc3nc(-c4cccc(-c5cnccn5)n4)cs3)cc21 [Compound 169, (S)-3-(hydroxymethyl)-3-methyl-N-(2-oxo-2-((4-(6-(pyrazin-2-yl)pyridin-2-yl)thiazol-2-yl)amino)ethyl)-2,3-dihydro-1H-indene-5-carboxamide]"
>95,< 0.1,< 0.1,> 95,"C[C@@H]1CN(c2cccc(-c3csc(NC(=O)CNC(=O)c4cnc5c(c4)[C@](C)(C#N)CC5)n3)c2)C[C@H](C)O1 [Compound 170, (R)-5-cyano-N-(2-((4-(3-((cis)-2,6-dimethylmorpholino)phenyl)thiazol-2-yl)amino)-2-oxoethyl)-5-methyl-6,7-dihydro-5H-cyclopenta[b]pyridine-3-carboxamide]"
>80,0.1 to 1,1 to 5,> 70,"C[C@@H]1CN(c2cccc(-c3csc(NC(=O)CNC(=O)c4ccc5c(c4)[C@@](C)(C#N)COC5)n3)c2)C[C@H](C)O1 [Compound 171, (S)-4-cyano-N-(2-((4-(3-((cis)-2,6-dimethylmorpholino)phenyl)thiazol-2-yl)amino)-2-oxoethyl)-4-methylisochroman-6-carboxamide]"
>95,< 0.1,< 0.1,> 95,"C[C@@H]1CN(c2cccc(-c3csc(NC(=O)CNC(=O)c4ccc5c(c4)[C@](C)(C#N)CCO5)n3)c2)C[C@H](C)O1 [Compound 172, (4R)-4-cyano-N-[2-[[4-[3-[(cis)-2,6-dimethylmorpholin-4-yl]phenyl]thiazol-2-yl]amino]-2-oxo-ethyl]-4-methyl-chromane-6-carboxamide]"
>95,0.1 to 1,0.1 to 1,> 80,"CN1CCOc2ccc(-c3csc(NC(=O)CNC(=O)c4ccc5c(c4)[C@](C)(CO)CC5)n3)cc21 [Compound 173, (R)-3-(hydroxymethyl)-3-methyl-N-(2-((4-(4-methyl-3,4-dihydro-2H-benzo[b][1,4]oxazin-6-yl)thiazol-2-yl)amino)-2-oxoethyl)-2,3-dihydro-1H-indene-5-carboxamide]"
>80,0.1 to 1,1 to 5,> 50,"CN1CCOc2ccc(-c3csc(NC(=O)CNC(=O)c4ccc5c(c4)[C@@](C)(CO)CC5)n3)cc21 [Compound 174, (S)-3-(hydroxymethyl)-3-methyl-N-(2-((4-(4-methyl-3,4-dihydro-2H-benzo[b][1,4]oxazin-6-yl)thiazol-2-yl)amino)-2-oxoethyl)-2,3-dihydro-1H-indene-5-carboxamide]"
>90,0.1 to 1,1 to 5,> 60,"Cn1cnc2ccc(-c3csc(NC(=O)CNC(=O)c4ccc5c(c4)[C@](C)(CO)CC5)n3)cc21 [Compound 175, (R)-3-(hydroxymethyl)-3-methyl-N-(2-((4-(1-methyl-1H-benzo[d]imidazol-6-yl)thiazol-2-yl)amino)-2-oxoethyl)-2,3-dihydro-1H-indene-5-carboxamide]"
>95,< 0.1,0.1 to 1,> 90,"Cn1ccc2ccc(-c3csc(NC(=O)CNC(=O)c4ccc5c(c4)[C@](C)(CO)CC5)n3)cc2c1=O [Compound 177, (R)-3-(hydroxymethyl)-3-methyl-N-(2-((4-(2-methyl-1-oxo-1,2-dihydroisoquinolin-7-yl)thiazol-2-yl)amino)-2-oxoethyl)-2,3-dihydro-1H-indene-5-carboxamide]"
